For data set [1], the system named is metastatic sentinel lymph node. Kind of data set: Detection of metastatic sentinel lymph node (ex vivo fluorescence, H & E staining, immunostaining). The settings on record: n = 4 for ICG group, n = 5 for ICG:MSA group. It counts as in vivo, rabbit. The procedure: A VX2 rabbit tumor model (Radiology, 2005; 234:423-430) was established, and after 2 weeks, 60 μM of each of ICG and ICG:MSA was injected subcutaneously into the peritumor of the tumor model. Then, the efficiency with which each of ICG and ICG:MSA detects a sentinel lymph node was examined using a fluorescence imaging system (developed by the applicant). Dissected normal and metastatic lymph nodes were confirmed ex vivo by fluorescence, and whether cancer metastasized to the lymph nodes was examined by H & E tissue staining and immunostaining.

The test system of another data set is lymph nodes. Kind of data set: Biodistribution after injection into the mouse footpad. It counts as in vivo. As for the experimental part: Each of the ICG: MSA, prepared in Example 3, and ICG, was treated into U937 cells (Korean Cell Line Bank (KCLB) No. 21593.1) activated with PMA (phorbol 12-myristate 13-acetate, Sigma, USA) (FIG. 9a), and the distribution thereof in the cells was monitored. […] In addition, each of ICG:MSA and ICG was injected into the mouse footpad, and the biodistribution thereof was examined.

Consider one compound from patent US10159756B2, “Complex of mannosyl serum albumin, method of preparing the same, optical imaging probe and kit comprising the same” (Korea University Research and Business Foundation, priority 2014, dated 2018).

`CC1(C)C(/C=C/C=C/C=C/C=C2\N(CCCCS(=O)(=O)O)c3ccc4ccccc4c3C2(C)C)=[N+](CCCCS(=O)(=O)[O-])c2ccc3ccccc3c21` [ICG, Indocyanine green]: in data set [1], the “Metastatic SLN rate” value came to 50% and the Total is 2. For the same compound, in the data set on lymph nodes, the biodistribution entry was “distributed in the popliteal lymph nodes and did spread to the axillary lymph nodes within a short time”.
